Measurements: PubChem BioAssay (NCI)
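Exposure lasted 48 hours, with cells grown in 96-well plates and compounds tested at five concentrations. Abbreviation: GI50, concentration required for 50% inhibition of growth. TGI is the concentration that stops growth completely.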

Experiments:
Assay in all cases: DTP human tumour cell line panel, 48 h
U251 CNS = test system: U251 CNS
NCI-H23 lung = test system: NCI-H23 lung
KM12 colon = test system: KM12 colon
HL-60(TB) leukemia = test system: HL-60(TB) leukemia
HCC-2998 colon = test system: HCC-2998 colon
NCI-H460 lung = test system: NCI-H460 lung
OVCAR-4 ovarian = test system: OVCAR-4 ovarian
HCT-15 colon = test system: HCT-15 colon
DU-145 prostate = test system: DU-145 prostate
MDA-MB-435 = test system: MDA-MB-435

| SMILES | TGI (U251 CNS) | TGI (NCI-H23 lung) | TGI (KM12 colon) | TGI (HL-60(TB) leukemia) | TGI (HCC-2998 colon) | TGI (NCI-H460 lung) | TGI (OVCAR-4 ovarian) | TGI (HCT-15 colon) | GI50 (U251 CNS) | GI50 (NCI-H23 lung) | GI50 (HCT-15 colon) | GI50 (DU-145 prostate) | TGI (DU-145 prostate) | GI50 (KM12 colon) | GI50 (HL-60(TB) leukemia) | GI50 (HCC-2998 colon) | GI50 (NCI-H460 lung) | GI50 (MDA-MB-435) | TGI (MDA-MB-435) | GI50 (OVCAR-4 ovarian) |
| --- | --- | --- | --- | --- | --- | --- | --- | --- | --- | --- | --- | --- | --- | --- | --- | --- | --- | --- | --- | --- |
| COc1ccc([C@@]2(O)c3c(ccc(O)c3OC)[C@H]2OC)c(OC)c1 | > 100 µM | > 100 µM | > 100 µM | > 100 µM | > 100 µM | > 100 µM | > 100 µM | – | – | – | – | – | – | – | – | – | – | – | – | – |
| CC(=O)Oc1c(C)c(-c2ccccc2)c(C)c(-c2ccccc2)c1C(=S)c1ccccc1 | > 100 µM | > 100 µM | > 100 µM | > 100 µM | > 100 µM | > 100 µM | – | > 100 µM | – | – | – | – | – | – | – | – | – | – | – | – |
| COc1ccc(C=O)cc1O[Si](C)(C)C(C)(C)C | > 100 µM | > 100 µM | > 100 µM | > 100 µM | > 100 µM | > 100 µM | > 100 µM | > 100 µM | – | – | – | – | – | – | – | – | – | – | – | – |
| COC(=O)C(=O)CC(=O)CCn1[nH]c(=O)c(Cl)c(Cl)c1=O | > 100 µM | > 100 µM | > 100 µM | > 100 µM | > 100 µM | > 100 µM | > 100 µM | > 100 µM | – | – | – | – | – | – | – | – | – | – | – | – |
| O=C1NC(=S)S/C1=C/c1ccc2c(c1)OCO2 | > 100 µM | > 100 µM | > 100 µM | > 100 µM | > 100 µM | > 100 µM | – | > 100 µM | > 100 µM | > 100 µM | > 100 µM | > 100 µM | > 100 µM | > 100 µM | 77.3 µM | > 100 µM | > 100 µM | > 100 µM | > 100 µM | – |
| Cc1ccc(S(=O)(=O)N/N=C2\CCCCC23CCC(=O)NC3)cc1 (stereo not given) | > 100 µM | – | > 100 µM | > 100 µM | > 100 µM | > 100 µM | > 100 µM | > 100 µM | – | – | – | – | – | – | – | – | – | – | – | – |
| CCCC1(CC(=O)O)OCCc2c1[nH]c1ccccc21 (stereo not given) | > 100 µM | > 100 µM | > 100 µM | > 100 µM | > 100 µM | – | > 100 µM | > 100 µM | – | – | – | – | – | – | – | – | – | – | – | – |
| COc1ccc2c(c1)C(=O)CCc1cc(OC)c(OC)c(OC)c1-2 | 0.18 µM | 0.0617 µM | – | – | – | > 100 µM | > 100 µM | > 100 µM | < 0.01 µM | < 0.01 µM | < 0.01 µM | < 0.01 µM | – | < 0.01 µM | – | < 0.01 µM | < 0.01 µM | – | 0.0717 µM | 0.818 µM |
| CCCCCCCCCCCC(=O)OCCOCCOCCOCCOCCOC(=O)CCCCCCCCCCC | > 100 µM | > 100 µM | > 100 µM | > 100 µM | > 100 µM | > 100 µM | > 100 µM | > 100 µM | – | – | – | – | – | – | – | – | – | – | – | – |
| COc1ccc(NC(=O)CC/C(CC(=O)c2ccco2)=N/NC(=O)C(N)=O)cc1 | – | > 100 µM | > 100 µM | > 100 µM | > 100 µM | > 100 µM | > 100 µM | > 100 µM | – | – | – | – | – | – | – | – | – | – | – | – |
| CC1(O)C(C)(O)C2(C)O[Te]3(OC12C)OC1(C)C(C)(O)C(C)(O)C1(C)O3 (stereo not given) | 23.8 µM | 29.7 µM | > 100 µM | 31.5 µM | > 100 µM | 47.9 µM | 77.9 µM | 34.4 µM | – | – | – | – | – | – | – | – | – | – | – | – |
| O=C(Nc1ccc(Cl)cc1)C1C(=O)C(=O)N(c2ccc(Cl)cc2)C1=O (stereo not given) | > 100 µM | > 100 µM | > 100 µM | > 100 µM | – | > 100 µM | – | > 100 µM | – | – | – | – | – | – | – | – | – | – | – | – |
| COc1cc(C=O)c(-c2c(C=O)ccc3c2OCO3)c(OC)c1OC | > 100 µM | > 100 µM | > 100 µM | 81.1 µM | > 100 µM | > 100 µM | > 100 µM | > 100 µM | – | – | – | – | – | – | – | – | – | – | – | – |
| N#CCC(=O)N/N=C1/C(=O)N(c2ccc(Cl)cc2)C(=O)C(=O)C1c1nc2ccccc2s1 (stereo not given) | > 100 µM | > 100 µM | > 100 µM | – | > 100 µM | – | > 100 µM | > 100 µM | – | – | – | – | – | – | – | – | – | – | – | – |
| Cc1ccc(S(=O)(=O)N=Nc2c(O)[nH]c3cc(O)c(C(=O)O)cc23)cc1 | > 100 µM | > 100 µM | > 100 µM | – | > 100 µM | > 100 µM | > 100 µM | > 100 µM | – | – | – | – | > 100 µM | – | – | – | – | – | > 100 µM | – |
| O=C1N/C(=C\[N+](=O)[O-])c2ccccc21 | > 100 µM | > 100 µM | > 100 µM | > 100 µM | > 100 µM | > 100 µM | > 100 µM | > 100 µM | – | – | – | – | – | – | – | – | – | – | – | – |
| O=C(Nc1cccc(O)c1)C(=O)C1C(=O)NC(=S)NC1=O | > 100 µM | > 100 µM | – | > 100 µM | > 100 µM | – | > 100 µM | > 100 µM | – | – | – | – | – | – | – | – | – | – | – | – |
| CC(C)CNc1nc(-c2ccccc2Cl)nc2ccccc12 | 30.5 µM | 31 µM | 64.4 µM | – | 35.9 µM | 36.1 µM | 50.5 µM | 32.1 µM | 16.9 µM | 16.2 µM | 17.1 µM | 16.1 µM | 30.5 µM | 23.4 µM | – | 19.8 µM | 18.3 µM | 16.5 µM | 30.8 µM | 17.1 µM |
| CCOC(=O)[CH-]C(=O)C12CC3CC(CC(C3)C1)C2.CCOC(=O)[CH-]C(=O)C12CC3CC(CC(C3)C1)C2.CC[O-].CC[O-].[Ti+4] | > 100 µM | > 100 µM | > 100 µM | > 100 µM | – | > 100 µM | > 100 µM | – | > 100 µM | > 100 µM | – | – | – | > 100 µM | > 100 µM | – | > 100 µM | – | – | > 100 µM |
| Cc1ccc(S(=O)(=O)OC2CC=CC2)cc1 | > 100 µM | – | > 100 µM | > 100 µM | > 100 µM | > 100 µM | > 100 µM | > 100 µM | – | – | – | – | – | – | – | – | – | – | – | – |
| Cn1c(Cl)c(/C=C2/C(=O)Nc3ccccc32)c2ccccc21 | 14.9 µM | 8.89 µM | 1.27 µM | 1.92 µM | – | > 32.2 µM | > 46.7 µM | 11.9 µM | 0.758 µM | 1.02 µM | 0.16 µM | 1.4 µM | 15.8 µM | 0.0689 µM | 0.14 µM | – | 0.727 µM | < 0.0438 µM | 0.152 µM | 2.62 µM |
| O=C1C=C(Nc2ccccc2C(=O)CC(=O)C(=O)Nc2cccc([N+](=O)[O-])c2)c2ccccc2C1=O | > 100 µM | > 100 µM | > 100 µM | 15.6 µM | > 100 µM | > 100 µM | > 100 µM | > 100 µM | – | – | – | – | – | – | – | – | – | – | – | – |
